Key:
[1] = tested on: P. gingivalis W83; test: P. gingivalis oral infection in mice, Experiment 3 (brain qPCR, Aβ1–42 and TNFα ELISA); format: in vivo, BALB/c mice; details: days 36 to 70
[2] = target: FXa (Homo sapiens, UniProt P00742); test: Cellular protease profiling; format: biochemical
[3] = target: Kgp (Porphyromonas gingivalis, UniProt Q51817); format: binding, P. gingivalis
[4] = target: thrombin (Homo sapiens, UniProt P00734); test: Cellular protease profiling; format: biochemical
[5] = target: DPP4 (Homo sapiens, UniProt P27487); test: Cellular protease profiling; format: biochemical
[6] = tested on: proteasome; test: Cellular protease profiling; format: biochemical
[7] = tested on: deubiquitinating peptidases; test: Cellular protease profiling; format: biochemical
[8] = target: plasmin (Homo sapiens, UniProt P00747); test: Cellular protease profiling; format: biochemical
[9] = tested on: P. gingivalis; format: cell-based
[10] = tested on: calpain; test: Cellular protease profiling; format: biochemical
[11] = target: T1, FVIIa (Homo sapiens, UniProt P08709); test: Cellular protease profiling; format: biochemical
T1 sequence (P08709 213-466 limits assumed): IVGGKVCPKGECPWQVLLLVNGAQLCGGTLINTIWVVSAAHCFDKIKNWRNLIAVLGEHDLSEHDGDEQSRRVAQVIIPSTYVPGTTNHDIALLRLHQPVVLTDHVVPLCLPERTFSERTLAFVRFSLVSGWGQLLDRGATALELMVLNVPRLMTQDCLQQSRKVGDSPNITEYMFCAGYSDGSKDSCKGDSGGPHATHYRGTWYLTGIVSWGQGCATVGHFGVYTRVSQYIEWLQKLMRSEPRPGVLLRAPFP
T1 sequence (P08709 61-212 partner limits assumed): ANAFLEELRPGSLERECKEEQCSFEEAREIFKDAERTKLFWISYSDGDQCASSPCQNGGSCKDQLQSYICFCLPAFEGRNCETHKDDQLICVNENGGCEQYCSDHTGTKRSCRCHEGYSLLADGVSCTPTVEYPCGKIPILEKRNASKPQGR

[12] = Oral pharmacokinetic properties and CNS penetration; details: in vivo
[13] = tested on: P. gingivalis; test: Kgp-dependent growth of P. gingivalis in defined medium; format: cell-based; details: 500 nM, over 43 hours
[14] = target: T2, Kgp (Porphyromonas gingivalis, UniProt B2RLK2); format: biochemical, P. gingivalis; details: recovery of enzyme activity following dilution of enzyme/inhibitor complexes
[15] = target: BACE1 (Homo sapiens, UniProt P56817); test: Cellular protease profiling; format: biochemical
[16] = target: caspase family enzymes; test: Cellular protease profiling; format: biochemical
[17] = target: T2, Kgp; format: binding, P. gingivalis; details: human oral subgingival plaque, preincubation with COR388
[18] = target: cathepsin S (Homo sapiens, UniProt P25774); test: Cellular protease profiling; format: biochemical
[19] = target: tryptase; test: Cellular protease profiling; format: biochemical
[20] = tested on: SH-SY5Y cells infected with P. gingivalis W83; test: AlamarBlue viability of SH-SY5Y cells challenged with P. gingivalis; format: cell-based, human; details: W83 strain, MOI of 400, 48 hours
[21] = tested on: differentiated SH-SY5Y cells exposed to RgpB and Kgp; test: Gingipain-induced aggregation of differentiated SH-SY5Y cells; format: cell-based, human; details: pretreatment of gingipains; RgpB and Kgp 10 μg/ml, 24 hours
[22] = tested on: P. gingivalis; test: Antimicrobial effects of Aβ on P. gingivalis (LIVE/DEAD BacLight); format: cell-based; parameters: dose or concentration left out as unconfirmed; details: 37°C, anaerobic, 24 hours
[23] = 10 and 30 mg/kg oral twice daily

## NCCCC[C@H](NC(=O)C1CCCC1)C(=O)COc1c(F)ccc(F)c1F [COR388]
[1]; 3 mg/kg oral twice daily
  Aβ1–42 level in brain tissue: did not reduce
  P. gingivalis load in brain tissue: some reduction
  TNFα level in brain tissue: did not reduce
[1]; [23]
  Aβ1–42 level in brain tissue compared to infected vehicle: reduced
  P. gingivalis load in brain tissue compared to infected vehicle: reduced
  TNFα level in brain tissue compared to infected vehicle: reduced
[2]
  IC50: > 10 µM
[3]
  Kgp target engagement (COR553 probe binding after preincubation): block of COR553 activity probe binding
[4]
  IC50: > 10 µM
[5]
  IC50: > 10 µM
[6]
  IC50: > 10 µM
[7]
  IC50: > 10 µM
[8]
  IC50: > 10 µM
[9]
  development of resistance on repeat passaging: did not develop
[10]
  IC50: > 10 µM
[11]
  IC50: > 10 µM
[12]
  CNS penetration: significant CNS penetration
[12]; po
  oral bioavailability / oral pharmacokinetics: superior oral pharmacokinetic
[13]
  growth of P. gingivalis in defined growth medium: inhibited the growth
[14]
  mode of inhibition: irreversible binding kinetics
[15]
  IC50: > 10 µM
[16]
  IC50: > 10 µM
[17]
  Kgp target engagement ex vivo (COR553 probe binding after preincubation): blocked probe binding to the active site
[18]
  IC50: > 10 µM
[19]
  IC50: > 10 µM

## C[C@H]1c2cccc(O)c2C(=O)C2=C(O)[C@]3(O)C(=O)C(C(N)=O)=C(O)[C@@H](N(C)C)[C@@H]3[C@@H](O)[C@@H]21 [doxycycline]
[20]
  protection against P. gingivalis–induced cell death: did not protect the cells

## NC(=O)CI [iodoacetamide]
[21]
  gingipain-induced cell aggregation: prevented gingipain-induced aggregation

## COc1c(N2C[C@@H]3CCCN[C@@H]3C2)c(F)cc2c(=O)c(C(=O)O)cn(C3CC3)c12 [moxifloxacin]
[9]
  development of resistance on repeat passaging: complete resistance
[9]; 12 passages
  increase of minimum inhibitory concentration (MIC) on passaging: over 1000 fold
[20]
  protection against P. gingivalis–induced cell death: did not protect the cells

## CC(C)[C@H](O)C(=O)N[C@@H](C)C(=O)N[C@@H]1C(=O)N(C)CCc2ccccc21 [semagacestat]
[20]
  protection against P. gingivalis–induced cell death: no protective effect

## Aβ1–42: Recombinant Aβ (1-42) Ultra-Pure, Ammonium Hydroxide (rProtein)
[22]
  viability of P. gingivalis: decreased viability

From publication PMC6357742, “Porphyromonas gingivalis in Alzheimer’s disease brains: Evidence for disease causation and treatment with small-molecule inhibitors” (Science Advances, 2019)
